From patent US10233193B2, “Fused tricyclic heterocyclic compounds useful for treating HIV infection” (MERCK SHARP & DOHME CORP., priority 2015, dated 2019)
Where two headings read alike, the source gives them in different places.

Test system: HIV-1 (NL4-3 strain)
Assay: Assay for inhibition of HIV replication (MT4-gag-GFP reporter cell line, wild type cell assay, Viking)
Format: cell-based
Settings: IP or IC50 from 4-parameter dose response curve
Protocol: This assay is a kinetic assay that employs a reporter cell line (MT4-gag-GFP) to quantify the number of new cells infected in each round of replication.
MT4-GFP cells (250,000 cells/ml) were bulk-infected with HIV-1 (NL4-3 strain) at low multiplicity of infection (MOI) in RPMI+10% FBS for 24 hours. Cells were then washed once in RPMI+10% FBS and resuspended in RPMI+0% or 10% or 100% normal human serum (NHS). Test compounds were serial-diluted in DMSO on ECHO. The infected MT4-GFP cells were added to a 384-well poly-D-lysine coated black plate with clear bottom in which the diluted test compounds were placed. The cells were seeded at 8,000 cells per well and the final DMSO concentration was 0.4%. The infected cells (Green GFP cells) were quantified at both 24 and 48 hours post incubation using Acumen eX3. Viral reproductive ratio (R0) was determined using the number of infected cells at 48 hours divided by the number of infected cells at 24 hours. Percent viral growth inhibition was calculated by [1−(R−Rtripledrug)/(RDMSO−Rtripledrug)]*100. Compound potency IP or IC50 was determined by a 4-parameter dose response curve analysis.
Illustrative compounds of the present invention were tested using this assay protocol and results are presented below in Table A.

CN1CC[C@@H]2C1C(C)(C)C(=O)c1c(O)c(=O)c(C(=O)NCc3ccc(F)cc3F)cn12 (some centres unmarked) [Compound 9]
IC50 (infected MT4-GFP cells in 100% normal human serum, read-out: WILD TYPE CELL ASSAY Viking IP (100% NHS)): 174 nM | IC50 (infected MT4-GFP cells in RPMI + 0% normal human serum, read-out: WILD TYPE CELL ASSAY Viking IP (0% NHS)): 5.3 nM
